According to patent US20130115286A1, “ORAL ADMINISTRATION FORMS FOR CONTROLLED RELEASE OF RIFAMPICIN FOR THE TREATMENT OF BACTERIAL INFECTIONS AND INFLAMMATORY DISEASES OF THE GASTROINTESTINAL TRACT” (priority 2010, published 2013):

Experiments:
[1] = in vivo, cited from earlier work
[2] = Stability tests on rifampicin in acid, neutral and basic environments (FIG. 1); assay type: physicochemical
[3] = determined by the intestinal pH values; cited from earlier work
[4] = oral, 600 mg, healthy volunteers; cited from earlier work
[5] = cited from earlier work

stability ([2]; acid environment): less stable | stability ([2]; neutral and weakly alkaline environments): sufficiently stable
Compound: CO[C@H]1/C=C/O[C@@]2(C)Oc3c(C)c(O)c4c(O)c(c(/C=N/N5CCN(C)CC5)c(O)c4c3C2=O)NC(=O)/C(C)=C\C=C\[C@H](C)[C@H](O)[C@@H](C)[C@@H](O)[C@@H](C)[C@H](OC(C)=O)[C@@H]1C [rifampicin]
dose eliminated in the urine ([1]; po): approx. 20 % of the dose | amount present in the plasma relative to that eliminated by the renal route [1]: 5 times | solubility in the intestine [3]: 1000 to 6000 µg/mL | maximum blood concentration (Cmax) [4]: 9000 ng/mL | pKa [5]: 1.7
